Experimental data: US6500934B1, “Bivalent agonists for G-protein coupled receptors” (priority 1996, dated 2002)

Key:
[1] = test system: α-MSH receptor; test: Frog melanocyte assay, pigment dispersion (agonist mode) in wild type melanophores; type: cell-based, Xenopus laevis; conditions: for pigment dispersion (result in words): α-MSH-ANT dimer: at higher concentrations (FIG. 6); for EC50: FIG. 4
Protocol: Frog Melanocyte Assay. Xenopus laevis melanophores were maintained in culture as described by M. Engel et al., Biochemistry 30, 3161-3169 (1991); C. A. Slate et al., Int. J. Peptide Protein Res. 45, 290-298 (1995); and C. Plank et al., J. Biol. Chem. 269, 12918-12924 (1994). Transient expression of bombesin receptor plasmid DNA (pJG3.6BR) in melanophores was achieved by electroporation (C. A. Slate et al., Int. J. Peptide Protein Res. 45, 290-298 (1995)). Melanophores were plated (15,000 per well) on 96 well tissue culture plates (Falcon), and time and dose-response curves were obtained by microtiter plate assays (R. Duncan et al., Clin. Pharmacokinet. 27, 290-306 (1994); M. Engel et al., Biochemistry 30, 3161-3169 (1991); C. A. Slate et al., Int. J. Peptide Protein Res. 45, 290-298 (1995); C. Plank et al., J. Biol. Chem. 269, 12918-12924 (1994); and P. M. Conn et al., Endocrinology 111, 335-337 (1982)). Prior to addition of monomers or dimers, cells were washed and then incubated for one hour with 0.7× L15 media supplemented with 1 nM melatonin. […] Monomers or dimers were added to the microtiter wells in 20 μl aliquots at 10 times their final concentration. For IC50 curves, the media also was supplemented with 5 nM α-MSH.
Phototransmission was measured at 620 nm using a 340 ATTC microtiter plate reader (SLT Lab Instruments). Transmission readings were taken 1 hour following the addition of melatonin (Ti), and monomers or dimers were added immediately. Additional readings (Tf) were made at various time points (5-60 min). Data was curve fitted by nonlinear regression with y=1−(Tf/Ti). The final data was normalized and expressed as a percentage of maximal pigment dispersion (ymax).
For this study, a rapid, functional assay for G-protein-coupled receptors in frog melanophore cells (C. K. Jayawickreme et al., J. Biol. Chem. 269, 29846-29854 (1994); M. N. Potenza et al., Anal. Biochem. 206, 315-322 (1992); G. F. Graminski et al., J. Biol. Chem. 268, 5957-5964 (1993); S. Karne et al., J. Biol. Chem. 268, 19126-19133 (1993); and C. K. Jayawickreme et al., Proc. Natl. Acad. Sci. USA 91, 1614-1618 (1994)) was used. In frog melanocyte cells, ligands like α-MSH that mediate increases in cellular cyclic AMP levels, or like endothelin 3 that stimulate PI metabolism (S. Karne et al., J. Biol. Chem. 268, 19126-19133 (1993)), cause pigment dispersion and cell darkening, whereas inhibitors of cyclic AMP synthesis, like melatonin, cause pigment aggregation and cell lightening. In this study, the effect of monomeric and dimeric peptides on pigment dispersion was determined.
Wild type melanophores were used for assays involving α-MSH and α-MSH-ANT monomers and dimers. Melanophores that were transfected with a plasmid that contained the bombesin receptor coding region were used for assays involving bombesin monomer and dimer (G. F. Graminski et al., J. Biol. Chem. 268, 5957-5964 (1993); and C. K. Jayawickreme et al., Proc. Natl. Acad. Sci. USA 91, 1614-1618 (1994)).

[2] = target: α-MSH receptor; test: Frog melanocyte assay, inhibition of α-MSH (5 nM) mediated pigment dispersion in wild type melanophores; type: cell-based, Xenopus laevis; conditions: 5 nM α-MSH, t=30 min, FIG. 5
Protocol: Frog Melanocyte Assay. Xenopus laevis melanophores were maintained in culture as described by M. Engel et al., Biochemistry 30, 3161-3169 (1991); C. A. Slate et al., Int. J. Peptide Protein Res. 45, 290-298 (1995); and C. Plank et al., J. Biol. Chem. 269, 12918-12924 (1994). Transient expression of bombesin receptor plasmid DNA (pJG3.6BR) in melanophores was achieved by electroporation (C. A. Slate et al., Int. J. Peptide Protein Res. 45, 290-298 (1995)). […]
Phototransmission was measured at 620 nm using a 340 ATTC microtiter plate reader (SLT Lab Instruments). Transmission readings were taken 1 hour following the addition of melatonin (Ti), and monomers or dimers were added immediately. Additional readings (Tf) were made at various time points (5-60 min). […] The final data was normalized and expressed as a percentage of maximal pigment dispersion (ymax).
For this study, a rapid, functional assay for G-protein-coupled receptors in frog melanophore cells (C. K. Jayawickreme et al., J. Biol. Chem. 269, 29846-29854 (1994); M. N. Potenza et al., Anal. Biochem. 206, 315-322 (1992); G. F. Graminski et al., J. Biol. Chem. 268, 5957-5964 (1993); S. Karne et al., J. Biol. Chem. 268, 19126-19133 (1993); and C. K. Jayawickreme et al., Proc. Natl. Acad. Sci. USA 91, 1614-1618 (1994)) was used. […] In this study, the effect of monomeric and dimeric peptides on pigment dispersion was determined. […]

[3] = wild type melanophores, t=30 min

Row | Substance | stimulation of dispersion below a concentration of 1 μM ([1]; below 1 μM, absence of α-MSH) | pigment dispersion (result in words) ([1]; wild type melanophores) | IC50 [2] [µM] | EC50 [1, 3] [µM] | EC50 of dimer lower as compared to the monomer (fold) [1, 3]
1 | MPdFRdWFKPV-GGGεAhx-K(20)-βAla [α-MSH-ANT monomer, assay monomer lacking cysteine] | did not stimulate dispersion | No significant dispersion | 0.12 ± 0.006 | – | –
2 | SYSMEHFRWGKPV-GGG-εAhx-K(20)-βAla [α-MSH monomer] | – | stimulated dispersion in a time and dose-dependent manner | – | 0.372 ± 0.018 | –
3 | homodimer: ligand domains SYSMEHFRWGKPV-, spacer GGG-εAhx, K(20), two disulfide-linked cysteines end capped at C-termini with β-alanine [α-MSH dimer] | – | stimulated dispersion in a time and dose-dependent manner | – | 0.0725 ± 0.005 | approximately 5 fold
